Measured values from patent US20200316038A1, “METHODS AND COMPOSITIONS FOR TREATING UREA CYCLE DISORDERS, IN PARTICULAR OTC DEFICIENCY” (CAMP4 THERAPEUTICS CORPORATION, priority 2017, published 2020).
Read-outs that look alike come from different tables or passages of the source.

B1: GDF10 (BMP3b): member of the BMP family and the TGF-B superfamily (protein, UniProt P55107 369-478, looked up)
Growth/differentiation factor …: QWDEPRVCSRRYLKVDFADIGWNEWIISPKSFDAYYCAGACEFPMPKIVRPSNHATIQSIVRAVGIIPGIPEPCCVPDKMNSLGVLFLDENRNVVLKVYPNMSVDTCACR

What was measured:
OTC [1] = assay: OTC expression modulated by compounds (OTC/Geo Mean of HKs, DMSO = 1); type: cell-based, human; conditions: OTC expression, compound at 10 uM final concentration
OTC [2] = assay: RNA-seq, OTC expression in compound-treated primary human hepatocytes; type: cell-based
[3] = tested on: multiple urea cycle-related genes; assay: RNA-seq, compounds that modulate multiple urea cycle-related genes; type: cell-based; conditions: primary human hepatocytes; for Up-regulated Genes: urea cycle-related genes significantly increased by the compound
ARG1 = assay: RNA-seq, ARG1 expression in compound-treated primary human hepatocytes; type: cell-based; conditions: RNA-seq, primary human hepatocytes, compounds that significantly increase ARG1 expression
CPS1 = assay: RNA-seq, CPS1 expression in compound-treated primary human hepatocytes; type: cell-based
[4] = RNA-seq, primary human hepatocytes, compounds that significantly increase NAGS expression

Row | Molecule | Max Value (OTC/Geo Mean of HKs; DMSO = 1) (OTC [1]) | further results
1 | CNC(=O)c1cc(Oc2ccc(NC(=O)Nc3ccc(Cl)c(C(F)(F)F)c3)c(F)c2)ccn1 [Regorafenib] | 1.54 | Max Value (OTC/Geo Mean of HKs; DMSO = 1) (OTC [1]; listed as Regorafenib (BAY 73-4506)): 2.07
2 | CN(c1ncccc1CNc1nc(Nc2ccc3c(c2)CC(=O)N3)ncc1C(F)(F)F)S(C)(=O)=O [PF-00562271] | 3.3 | 
3 | O=C(Nc1nc2cccc(-c3ccc(CN4CCS(=O)(=O)CC4)cc3)n2n1)C1CC1 [GLPG0634] | 1.54 | 
4 | CC(C)[C@H](O)C(=O)N[C@@H](C)C(=O)N[C@@H]1C(=O)N(C)CCc2ccccc21 [Semagacestat] | 1.5 | 
5 | CCCC(=O)O[C@@H]1[C@@H](C)[C@@]2(O)[C@@H](C=C(CO)C[C@]3(O)C(=O)C(C)=C[C@@H]23)[C@@H]2C(C)(C)[C@]12OC(=O)CCC [Phorbol 12,13-dibutyrate] |  | NAGS expression, Fold change (Log 2) vs untreated (NAGS; [4]): 0.62 Log 2
6 | COc1cc2c(cc1OC)CN(C(=O)/C=C/c1c(-c3ccccc3)n(C)c3ncccc13)CC2 [SIS3] | 1.46 | NAGS expression, Fold change (Log 2) vs untreated (NAGS): 0.64 Log 2
7 | C=CCNC1=C2C[C@@H](C)C[C@H](OC)[C@H](O)[C@@H](C)/C=C(\C)[C@H](OC(N)=O)[C@@H](OC)/C=C\C=C(/C)C(=O)NC(=CC1=O)C2=O [17-AAG (Tanespimycin), Tanespimycin] | 1.69 | 
8 | N[C@@]1(C(=O)O)CS(=O)(=O)[C@H]2[C@H](C(=O)O)[C@H]21 [Pomaglumetad] | 1.49 | 
9 | CC1(C)CC(=O)c2c(C(F)(F)F)nn(-c3ccc(C(N)=O)c(N[C@H]4CC[C@H](OC(=O)CN)CC4)c3)c2C1 [PF-04929113 (SNX-5422)] | 1.73 | 
10 | CCN(CC)CCNC(=O)c1c(C)[nH]c(/C=C2\C(=O)Nc3ccc(F)cc32)c1C [Sunitinib] | 2.62 | 
11 | NS(=O)(=O)C#Cc1ccccc1 [Pifithrin-μ] |  | NAGS expression, Fold change (Log 2) vs untreated (NAGS; [4]): 1.18 Log 2; Fold change (Log 2) vs untreated (OTC [2]): 0.79 Log 2; number of urea cycle genes whose expression was significantly up-regulated [3]: three; Up-regulated Genes [3]: OTC, NAGS, ARG1
12 | CCS(=O)(=O)N1CC(CC#N)(n2cc(-c3ncnc4[nH]ccc34)cn2)C1 [Baricitinib] | 1.66 | 
13 | COc1cc(Nc2ncc(F)c(Nc3ccc4c(n3)N(COP(=O)(O)O)C(=O)C(C)(C)O4)n2)cc(OC)c1OC [R788 (fostamatinib disodium hexahydrate), fostamatinib disodium hexahydrate] |  | number of urea cycle genes whose expression was significantly up-regulated [3]: three; Up-regulated Genes [3]: CPS1, ARG1, SLC25A15
14 | [H]/N=C(/N)N/C(=N/[H])NCCc1ccccc1 [Phenformin] |  | NAGS expression, Fold change (Log 2) vs untreated (NAGS): 1.38 Log 2; ARG1 expression, Fold change (Log 2) vs untreated (ARG1): 1.14 Log 2
15 | N#CC(C#N)=NNc1cccc(Cl)c1 [CCCP] | 4.06 | 
16 | N#CC(c1ccnc(OCc2ccc(CN3CCOCC3)cc2)n1)c1nc2ccccc2s1 (stereo not shown) [AS602801 (Bentamapimod), Bentamapimod] | 2.75 | 
17 | c1cc(-c2cnn3cc(-c4ccc(OCCN5CCCCC5)cc4)cnc23)ccn1 [Dorsomorphin] | 4.78 | 
18 | O=C(NCCCNc1nc(Nc2cccc(CN3CCOCC3)c2)ncc1C1CC1)C1CCC1 [MRT67307] | 1.68 | 
19 | Cc1ccc(F)c(NC(=O)Nc2ccc(-c3cccc4[nH]nc(N)c34)cc2)c1 [Linifanib (ABT-869), Linifanib] | 2.87 | 
20 | CC1(C)CC[C@]2(C(=O)O)CC[C@]3(C)[C@H](C(=O)C=C4[C@@]5(C)C=C(C#N)C(=O)C(C)(C)[C@@H]5CC[C@]43C)[C@@H]2C1 [Bardoxolone] | 2.76 | 
21 | C1=C/COCc2cc(ccc2OCCN2CCCC2)Nc2nccc(n2)-c2cccc(c2)COC/1 [Pacritinib (SB1518), Pacritinib] |  | number of urea cycle genes whose expression was significantly up-regulated [3]: five; Up-regulated Genes [3]: CPS1, ASS1, ASL, OTC, ARG1
22 | CN1CCN(CCCN2c3ccccc3Sc3ccc(C(F)(F)F)cc32)CC1 [TFP, Trifluoperazine] |  | NAGS expression, Fold change (Log 2) vs untreated (NAGS; [4]): 0.58 Log 2
23 | Cc1cc(C)c(/C=C2\C(=O)Nc3ccccc32)[nH]1 [Semaxanib] |  | NAGS expression, Fold change (Log 2) vs untreated (NAGS; [4]): 2 Log 2
24 | Cc1cc(Nc2cc(CN3CCOCC3)c3nc(C)c(Cc4ccc(Cl)cc4F)n3n2)n[nH]1 [LY2784544] | 2.78 | 
25 | B1 |  | Fold change (Log 2) vs untreated (CPS1): 1.66 Log 2; ARG1 expression, Fold change (Log 2) vs untreated (ARG1): 0.97 Log 2
